Numbers after ± are expanded uncertainties.
Experiments:
[1] = for surface tension liquid-gas: Ring tensiometer; for mass density: 101.33 kPa, Liquid
[2] = xn = mol fraction of the nth substance listed; settings: Ring tensiometer

CCCCCO [pentan-1-ol]
[1], 298.15 K
Settings | mass density [kg/m3] | surface tension liquid-gas [mN/m]
– | 811.1 ± 0.99 | 24.89 ± 0.41

CCCCCCO [hexan-1-ol] + OCCO
surface tension liquid-gas [mN/m], [2]
Settings | 298.15 K | 303.15 K | 308.15 K | 313.15 K | 318.15 K
x1 = 0.0429 | 32.5 ± 0.52 | 32.81 ± 0.49 | 32.68 ± 0.49 | 31.55 ± 0.48 | 31.38 ± 0.52
x1 = 0.1009 | 29.07 ± 0.45 | 29.49 ± 0.46 | 29.34 ± 0.46 | 29.27 ± 0.45 | 28.97 ± 0.45
x1 = 0.2761 | 28 ± 0.44 | 27.47 ± 0.44 | 27.31 ± 0.43 | 27.15 ± 0.43 | 26.91 ± 0.43
x1 = 0.3098 | 27.9 ± 0.44 | 27.32 ± 0.43 | 27.19 ± 0.43 | 27.02 ± 0.43 | 26.8 ± 0.43
x1 = 0.35 | 27.38 ± 0.44 | 27.12 ± 0.43 | 26.98 ± 0.43 | 26.81 ± 0.43 | 26.63 ± 0.43
x1 = 0.3942 | 27.32 ± 0.43 | 26.98 ± 0.43 | 26.83 ± 0.43 | 26.68 ± 0.43 | 26.47 ± 0.43
x1 = 0.4468 | 27.24 ± 0.43 | 26.78 ± 0.43 | 26.63 ± 0.43 | 26.47 ± 0.43 | 26.31 ± 0.42
x1 = 0.5079 | 27.03 ± 0.43 | 26.48 ± 0.43 | 26.35 ± 0.42 | 26.17 ± 0.42 | 25.97 ± 0.42
x1 = 0.5405 | 26.82 ± 0.43 | 26.38 ± 0.42 | 26.25 ± 0.42 | 26.07 ± 0.42 | 25.88 ± 0.42
x1 = 0.6061 | 26.71 ± 0.43 | 26.17 ± 0.42 | 26.01 ± 0.42 | 25.85 ± 0.42 | 25.67 ± 0.42
x1 = 0.6452 | 26.62 ± 0.43 | 25.97 ± 0.42 | 25.78 ± 0.42 | 25.65 ± 0.42 | 25.48 ± 0.42
x1 = 0.6897 | 26.51 ± 0.43 | 25.75 ± 0.42 | 25.58 ± 0.42 | 25.38 ± 0.41 | 25.21 ± 0.41
x1 = 0.7407 | 26.43 ± 0.43 | 25.48 ± 0.42 | 25.3 ± 0.41 | 25.16 ± 0.41 | 24.99 ± 0.41
x1 = 0.8 | 26.34 ± 0.43 | 25.38 ± 0.41 | 25.19 ± 0.41 | 25.02 ± 0.41 | 24.81 ± 0.41
x1 = 0.8333 | 26.28 ± 0.43 | 25.25 ± 0.41 | 25.17 ± 0.41 | 24.98 ± 0.41 | 24.75 ± 0.41
x1 = 0.9091 | 26.22 ± 0.43 | 25.16 ± 0.41 | 24.97 ± 0.41 | 24.78 ± 0.41 | 24.56 ± 0.41
x1 = 0.9524 | 26.16 ± 0.42 | 25.02 ± 0.41 | 24.81 ± 0.41 | 24.61 ± 0.41 | 24.45 ± 0.4

OCCO [1,2-ethanediol] + CCCCCCO
[2], x2 = 0
Settings | surface tension liquid-gas [mN/m]
298.15 K | 47.79 ± 0.68
303.15 K | 47.57 ± 0.67
308.15 K | 47.25 ± 0.67
313.15 K | 47.1 ± 0.67
318.15 K | 46.4 ± 0.66

CCCCCCCO [heptan-1-ol]
Settings | surface tension liquid-gas [mN/m]
[1], 298.15 K | 26.38 ± 0.42

Settings | mass density [kg/m3]
[1], 298.15 K, Vibrating tube method | 818.11 ± 0.81

CCCCCCO [hexan-1-ol]
[1], 298.15 K
Settings | mass density [kg/m3] | surface tension liquid-gas [mN/m]
– | 815.02 ± 0.98 | 25.69 ± 0.42

OCCO [1,2-ethanediol]
[1]
Settings | surface tension liquid-gas [mN/m]
298.15 K | 47.79 ± 0.68
303.15 K | 47.57 ± 0.67
308.15 K | 47.25 ± 0.67
313.15 K | 47.1 ± 0.67
318.15 K | 46.4 ± 0.66

Source: the NIST ThermoML archive (doi:10.1021/je800101v)
